Experimental data taken from ChEMBL document CHEMBL5291721, “A preclinical secondary pharmacology resource illuminates target-adverse drug reaction associations of marketed drugs” (Nat Commun, 2023).

Columns and labels:
Thromboxane A2 receptor [1] = target: T1, Thromboxane A2 receptor (Homo sapiens, UniProt P21731); assay type: functional, cell-based
T1 sequence (P21731 whole entry): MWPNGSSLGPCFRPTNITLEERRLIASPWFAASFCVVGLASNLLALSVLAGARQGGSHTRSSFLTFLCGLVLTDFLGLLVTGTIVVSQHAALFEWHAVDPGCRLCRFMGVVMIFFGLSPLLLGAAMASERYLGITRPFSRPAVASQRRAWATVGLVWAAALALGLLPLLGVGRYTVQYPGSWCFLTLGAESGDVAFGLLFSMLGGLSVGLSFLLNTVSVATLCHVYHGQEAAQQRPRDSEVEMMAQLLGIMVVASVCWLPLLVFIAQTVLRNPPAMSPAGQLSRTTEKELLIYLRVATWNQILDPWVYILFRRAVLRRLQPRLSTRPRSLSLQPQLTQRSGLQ

Thromboxane A2 receptor [2] = target: T1, Thromboxane A2 receptor; assay type: functional, cell-based; remark: listed apart in the source
Adenosine receptor A3 = target: T2, Adenosine receptor A3 (Homo sapiens, UniProt P0DMS8)
T2 sequence (P0DMS8 whole entry): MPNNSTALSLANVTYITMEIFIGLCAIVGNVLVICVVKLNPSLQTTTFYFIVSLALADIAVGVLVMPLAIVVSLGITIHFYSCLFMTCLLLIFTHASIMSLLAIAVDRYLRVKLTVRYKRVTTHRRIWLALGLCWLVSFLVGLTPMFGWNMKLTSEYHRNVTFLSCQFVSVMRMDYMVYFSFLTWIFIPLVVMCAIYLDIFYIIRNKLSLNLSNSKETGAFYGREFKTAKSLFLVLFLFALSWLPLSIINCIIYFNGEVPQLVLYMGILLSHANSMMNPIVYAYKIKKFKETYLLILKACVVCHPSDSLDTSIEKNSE

[3] = target: cGMP-inhibited 3',5'-cyclic phosphodiesterase 3A (Homo sapiens, UniProt Q14432); assay type: functional
D(1A) dopamine receptor = D(1A) dopamine receptor (Homo sapiens, UniProt P21728)
[4] = target: T3, Alpha-1A adrenergic receptor (Homo sapiens, UniProt P35348); assay type: functional, cell-based
T3 sequence (P35348 whole entry): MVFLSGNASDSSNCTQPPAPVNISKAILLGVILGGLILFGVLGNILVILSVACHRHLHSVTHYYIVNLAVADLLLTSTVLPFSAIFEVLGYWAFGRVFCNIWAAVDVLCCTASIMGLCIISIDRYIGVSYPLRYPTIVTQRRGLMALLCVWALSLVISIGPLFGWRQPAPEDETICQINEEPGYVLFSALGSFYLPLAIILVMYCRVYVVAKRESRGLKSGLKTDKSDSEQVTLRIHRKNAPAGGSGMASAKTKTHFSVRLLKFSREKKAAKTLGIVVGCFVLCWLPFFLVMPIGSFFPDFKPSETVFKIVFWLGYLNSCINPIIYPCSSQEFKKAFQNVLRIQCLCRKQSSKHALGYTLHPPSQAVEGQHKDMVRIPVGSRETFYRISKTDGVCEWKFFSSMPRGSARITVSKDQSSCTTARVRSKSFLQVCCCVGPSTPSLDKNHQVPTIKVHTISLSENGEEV

Mu-type opioid receptor = Mu-type opioid receptor (Homo sapiens, UniProt P35372)
[5] = target: T3, Alpha-1A adrenergic receptor; assay type: functional, cell-based; remark: listed apart in the source
[6] = target: Sodium-dependent noradrenaline transporter (Homo sapiens, UniProt P23975)
Histamine H3 receptor = Histamine H3 receptor (Homo sapiens, UniProt Q9Y5N1)
[7] = target: 5-hydroxytryptamine receptor 2B (Homo sapiens, UniProt P41595); assay type: functional, cell-based
[8] = target: Vascular endothelial growth factor receptor 2 (Homo sapiens, UniProt P35968); assay type: functional
Prothrombin = Prothrombin (Homo sapiens, UniProt P00734); assay type: functional
[9] = target: Sodium-dependent dopamine transporter (Homo sapiens, UniProt Q01959)
[10] = target: T4, Prostaglandin G/H synthase 1 (Homo sapiens, UniProt P23219); assay type: functional
[11] = target: 3',5'-cyclic-AMP phosphodiesterase 4A (Homo sapiens, UniProt P27815); assay type: functional
[12] = target: T5, Alpha-2A adrenergic receptor (Homo sapiens, UniProt P08913)
T5 sequence (P08913 whole entry): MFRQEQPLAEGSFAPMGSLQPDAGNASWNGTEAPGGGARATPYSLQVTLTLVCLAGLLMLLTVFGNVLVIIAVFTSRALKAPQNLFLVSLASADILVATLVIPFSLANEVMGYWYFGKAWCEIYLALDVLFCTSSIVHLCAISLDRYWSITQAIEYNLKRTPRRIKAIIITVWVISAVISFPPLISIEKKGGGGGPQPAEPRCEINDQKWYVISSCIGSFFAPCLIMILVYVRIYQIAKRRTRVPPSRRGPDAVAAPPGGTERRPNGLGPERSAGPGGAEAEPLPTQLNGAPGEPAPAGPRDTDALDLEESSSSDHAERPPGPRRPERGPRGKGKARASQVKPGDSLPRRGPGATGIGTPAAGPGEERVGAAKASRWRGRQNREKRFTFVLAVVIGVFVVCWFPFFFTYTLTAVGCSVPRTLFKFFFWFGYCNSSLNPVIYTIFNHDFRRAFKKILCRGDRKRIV

[13] = target: T4, Prostaglandin G/H synthase 1; assay type: functional; remark: listed apart in the source
D(3) dopamine receptor = D(3) dopamine receptor (Homo sapiens, UniProt P35462)
Acetylcholinesterase = Acetylcholinesterase (Homo sapiens, UniProt P22303); assay type: functional
Note: assay procedure not described here.

Mu-type opioid receptor, sequence (P35372 whole entry): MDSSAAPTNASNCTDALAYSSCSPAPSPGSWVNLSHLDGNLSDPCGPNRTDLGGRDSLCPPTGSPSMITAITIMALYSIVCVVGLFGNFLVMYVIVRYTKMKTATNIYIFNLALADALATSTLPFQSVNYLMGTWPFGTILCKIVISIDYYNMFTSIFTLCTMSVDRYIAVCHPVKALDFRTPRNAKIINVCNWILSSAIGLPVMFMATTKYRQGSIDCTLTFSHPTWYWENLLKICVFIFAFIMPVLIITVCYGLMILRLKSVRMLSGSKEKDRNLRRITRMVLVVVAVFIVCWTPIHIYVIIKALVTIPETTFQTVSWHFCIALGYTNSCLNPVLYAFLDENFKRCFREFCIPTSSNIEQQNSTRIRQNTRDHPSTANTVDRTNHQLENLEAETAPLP
Acetylcholinesterase, sequence (P22303 whole entry): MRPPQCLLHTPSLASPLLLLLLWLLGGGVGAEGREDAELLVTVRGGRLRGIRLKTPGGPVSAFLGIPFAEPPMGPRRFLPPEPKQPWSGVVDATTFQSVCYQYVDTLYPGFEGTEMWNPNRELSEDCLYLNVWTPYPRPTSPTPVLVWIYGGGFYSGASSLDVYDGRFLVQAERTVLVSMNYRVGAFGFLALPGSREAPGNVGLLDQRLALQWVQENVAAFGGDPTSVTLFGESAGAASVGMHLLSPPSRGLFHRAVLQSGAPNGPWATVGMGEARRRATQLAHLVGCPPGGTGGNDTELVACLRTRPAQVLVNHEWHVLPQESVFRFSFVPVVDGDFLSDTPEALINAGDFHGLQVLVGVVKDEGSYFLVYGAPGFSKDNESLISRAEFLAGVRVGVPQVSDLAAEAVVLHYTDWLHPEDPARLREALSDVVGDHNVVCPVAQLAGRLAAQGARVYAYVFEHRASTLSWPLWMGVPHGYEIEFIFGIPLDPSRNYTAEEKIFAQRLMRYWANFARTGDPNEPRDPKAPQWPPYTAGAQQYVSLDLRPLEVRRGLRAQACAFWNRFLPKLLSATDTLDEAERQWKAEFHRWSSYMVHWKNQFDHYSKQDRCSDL
T4 sequence (P23219 whole entry): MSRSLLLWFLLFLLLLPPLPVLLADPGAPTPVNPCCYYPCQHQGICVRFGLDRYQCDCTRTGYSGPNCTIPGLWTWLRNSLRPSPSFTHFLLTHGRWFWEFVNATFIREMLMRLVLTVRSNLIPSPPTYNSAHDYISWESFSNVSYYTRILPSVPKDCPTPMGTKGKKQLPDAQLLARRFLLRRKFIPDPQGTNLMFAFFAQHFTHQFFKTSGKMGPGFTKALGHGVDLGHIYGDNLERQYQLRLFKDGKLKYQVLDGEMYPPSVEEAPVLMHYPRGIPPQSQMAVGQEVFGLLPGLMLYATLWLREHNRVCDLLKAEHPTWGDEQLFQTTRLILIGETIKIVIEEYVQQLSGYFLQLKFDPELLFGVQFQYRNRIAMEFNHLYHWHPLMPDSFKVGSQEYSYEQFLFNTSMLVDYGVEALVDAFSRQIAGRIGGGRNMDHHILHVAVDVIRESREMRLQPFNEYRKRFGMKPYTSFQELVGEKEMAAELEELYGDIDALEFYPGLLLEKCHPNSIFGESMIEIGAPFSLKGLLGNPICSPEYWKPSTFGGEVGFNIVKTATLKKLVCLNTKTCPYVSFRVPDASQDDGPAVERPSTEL
D(3) dopamine receptor, sequence (P35462 whole entry): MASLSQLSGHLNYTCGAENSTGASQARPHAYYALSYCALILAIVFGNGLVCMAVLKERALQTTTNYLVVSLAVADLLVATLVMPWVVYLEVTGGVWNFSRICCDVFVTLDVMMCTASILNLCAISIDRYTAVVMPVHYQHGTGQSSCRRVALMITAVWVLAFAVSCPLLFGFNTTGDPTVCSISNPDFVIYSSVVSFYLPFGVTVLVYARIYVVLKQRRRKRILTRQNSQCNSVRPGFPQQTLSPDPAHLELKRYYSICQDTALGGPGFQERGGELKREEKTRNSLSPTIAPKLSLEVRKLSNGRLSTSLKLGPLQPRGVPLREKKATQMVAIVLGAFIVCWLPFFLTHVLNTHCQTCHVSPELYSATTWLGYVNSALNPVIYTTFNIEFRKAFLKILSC
Histamine H3 receptor, sequence (Q9Y5N1 whole entry): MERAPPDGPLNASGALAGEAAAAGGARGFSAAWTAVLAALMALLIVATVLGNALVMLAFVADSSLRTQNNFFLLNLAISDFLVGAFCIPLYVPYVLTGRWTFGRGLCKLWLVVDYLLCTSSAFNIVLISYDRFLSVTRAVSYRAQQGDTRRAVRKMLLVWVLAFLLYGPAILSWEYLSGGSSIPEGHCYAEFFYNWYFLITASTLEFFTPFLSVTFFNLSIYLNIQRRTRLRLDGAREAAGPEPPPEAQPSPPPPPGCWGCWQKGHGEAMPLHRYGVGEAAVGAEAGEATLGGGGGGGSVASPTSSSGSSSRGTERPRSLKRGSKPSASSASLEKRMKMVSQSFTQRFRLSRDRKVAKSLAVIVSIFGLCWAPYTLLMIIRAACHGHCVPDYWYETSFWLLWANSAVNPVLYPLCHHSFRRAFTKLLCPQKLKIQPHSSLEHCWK
3',5'-cyclic-AMP phosphodiesterase 4A, sequence (P27815 whole entry): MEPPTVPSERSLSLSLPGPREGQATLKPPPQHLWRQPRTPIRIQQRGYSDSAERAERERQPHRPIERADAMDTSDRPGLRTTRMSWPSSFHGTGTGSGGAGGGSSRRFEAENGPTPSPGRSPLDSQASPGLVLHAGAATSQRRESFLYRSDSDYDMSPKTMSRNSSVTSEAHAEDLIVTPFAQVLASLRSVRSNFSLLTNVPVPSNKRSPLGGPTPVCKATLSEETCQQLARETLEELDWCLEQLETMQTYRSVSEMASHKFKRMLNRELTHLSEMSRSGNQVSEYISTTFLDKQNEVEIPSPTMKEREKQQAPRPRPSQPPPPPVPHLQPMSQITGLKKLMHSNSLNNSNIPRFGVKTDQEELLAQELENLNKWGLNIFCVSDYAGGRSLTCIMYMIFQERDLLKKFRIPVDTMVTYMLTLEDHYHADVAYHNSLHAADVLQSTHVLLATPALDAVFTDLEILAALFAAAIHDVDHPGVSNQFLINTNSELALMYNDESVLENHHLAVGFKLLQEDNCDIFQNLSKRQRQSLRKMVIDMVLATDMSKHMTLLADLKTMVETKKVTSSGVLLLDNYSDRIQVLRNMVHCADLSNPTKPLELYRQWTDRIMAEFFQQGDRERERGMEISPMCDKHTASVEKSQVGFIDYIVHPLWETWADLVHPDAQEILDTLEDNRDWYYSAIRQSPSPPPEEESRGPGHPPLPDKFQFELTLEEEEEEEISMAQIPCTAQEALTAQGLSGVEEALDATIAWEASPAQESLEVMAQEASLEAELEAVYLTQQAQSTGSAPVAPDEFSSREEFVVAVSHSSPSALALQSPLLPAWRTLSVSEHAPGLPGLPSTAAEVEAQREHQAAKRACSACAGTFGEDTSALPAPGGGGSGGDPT
D(1A) dopamine receptor, sequence (P21728 whole entry): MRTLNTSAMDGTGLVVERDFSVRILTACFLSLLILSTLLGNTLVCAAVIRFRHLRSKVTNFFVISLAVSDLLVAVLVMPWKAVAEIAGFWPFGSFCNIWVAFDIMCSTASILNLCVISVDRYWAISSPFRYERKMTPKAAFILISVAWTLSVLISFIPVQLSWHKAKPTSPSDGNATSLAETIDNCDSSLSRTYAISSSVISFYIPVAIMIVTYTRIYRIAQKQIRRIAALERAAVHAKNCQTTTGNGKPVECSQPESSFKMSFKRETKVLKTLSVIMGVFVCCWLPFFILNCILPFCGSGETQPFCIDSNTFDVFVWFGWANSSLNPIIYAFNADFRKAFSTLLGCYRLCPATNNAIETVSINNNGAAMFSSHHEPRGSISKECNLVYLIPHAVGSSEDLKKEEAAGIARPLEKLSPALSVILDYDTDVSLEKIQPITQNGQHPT
Sodium-dependent dopamine transporter, sequence (Q01959 whole entry): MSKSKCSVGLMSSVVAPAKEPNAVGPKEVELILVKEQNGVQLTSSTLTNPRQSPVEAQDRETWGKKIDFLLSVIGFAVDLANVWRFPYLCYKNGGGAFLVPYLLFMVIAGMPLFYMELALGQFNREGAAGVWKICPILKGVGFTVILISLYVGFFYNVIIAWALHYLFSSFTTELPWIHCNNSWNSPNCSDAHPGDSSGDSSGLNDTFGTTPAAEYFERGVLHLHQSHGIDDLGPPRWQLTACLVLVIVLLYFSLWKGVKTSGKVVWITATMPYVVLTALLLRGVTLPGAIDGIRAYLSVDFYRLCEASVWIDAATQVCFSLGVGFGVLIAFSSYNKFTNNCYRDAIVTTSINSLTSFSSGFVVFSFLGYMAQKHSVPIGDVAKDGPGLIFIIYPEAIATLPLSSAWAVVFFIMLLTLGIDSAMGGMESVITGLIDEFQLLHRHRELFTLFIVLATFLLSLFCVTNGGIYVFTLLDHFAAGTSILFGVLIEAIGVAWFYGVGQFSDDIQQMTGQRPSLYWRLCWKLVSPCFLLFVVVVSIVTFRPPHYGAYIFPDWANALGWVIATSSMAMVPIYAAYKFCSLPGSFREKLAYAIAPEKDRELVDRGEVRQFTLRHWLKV
5-hydroxytryptamine receptor 2B, sequence (P41595 whole entry): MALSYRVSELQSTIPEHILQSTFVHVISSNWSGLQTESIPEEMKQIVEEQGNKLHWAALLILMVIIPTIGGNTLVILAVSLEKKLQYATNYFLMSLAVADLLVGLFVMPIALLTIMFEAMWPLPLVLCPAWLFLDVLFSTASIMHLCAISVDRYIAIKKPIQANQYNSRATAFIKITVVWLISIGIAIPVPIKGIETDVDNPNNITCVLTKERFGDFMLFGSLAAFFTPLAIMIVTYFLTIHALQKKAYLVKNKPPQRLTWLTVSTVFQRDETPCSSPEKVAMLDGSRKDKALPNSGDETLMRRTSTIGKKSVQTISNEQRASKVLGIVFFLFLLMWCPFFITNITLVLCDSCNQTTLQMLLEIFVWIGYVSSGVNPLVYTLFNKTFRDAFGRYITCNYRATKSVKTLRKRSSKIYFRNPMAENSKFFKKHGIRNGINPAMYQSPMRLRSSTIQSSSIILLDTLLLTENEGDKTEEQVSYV

Row | Structure (SMILES) | AC50 (Thromboxane A2 receptor [1]) [µM] | AC50 (Thromboxane A2 receptor [2]) [µM] | AC50 (Adenosine receptor A3) [µM] | AC50 [3] [µM] | AC50 (D(1A) dopamine receptor) [µM] | AC50 [4] [µM] | AC50 (Mu-type opioid receptor) [µM] | AC50 [5] [µM] | AC50 [6] [µM] | AC50 (Histamine H3 receptor) [µM] | AC50 [7] [µM] | AC50 [8] [µM] | AC50 (Prothrombin) [µM] | AC50 [9] [µM] | AC50 [10] [µM] | AC50 [11] [µM] | AC50 [12] [µM] | AC50 [13] [µM] | AC50 (D(3) dopamine receptor) [µM] | AC50 (Acetylcholinesterase) [µM]
1 | N[C@@H](Cc1ccc(N(CCCl)CCCl)cc1)C(=O)O | > 30 | > 30 | > 30 | > 30 | > 30 | > 30 | 20.6 | > 30 | > 30 | > 30 | > 30 | > 30 | > 30 | 16.9 | > 30 | > 30 | 11.2 | 6.82 | 24.8 | 20
2 | OCc1ccccc1 [BENZYL ALCOHOL] | > 30 | > 30 | > 30 | > 30 | > 30 | > 30 | > 30 | > 30 | > 30 | > 30 | > 30 | > 30 | > 30 | > 30 | > 30 | > 30 | > 30 | > 30 | > 30 | > 30
3 | C[C@H]1C[C@H]2[C@@H]3CCC4=CC(=O)C=C[C@]4(C)[C@@]3(F)[C@@H](O)C[C@]2(C)[C@@]1(O)C(=O)CO [BETAMETHASONE] | > 30 | > 30 | > 30 | > 30 | > 30 | > 30 | > 30 | > 30 | > 30 | > 30 | > 30 | > 30 | > 30 | > 30 | > 30 | > 30 | > 30 | > 30 | > 30 | > 30
4 | CC(=O)OCC(=O)[C@@]1(OC(C)=O)[C@@H](C)C[C@H]2[C@@H]3C[C@H](F)C4=CC(=O)C=C[C@]4(C)[C@@]3(F)[C@@H](O)C[C@@]21C [DIFLORASONE DIACETATE] | > 30 | > 30 | > 30 | > 30 | > 30 | > 30 | > 30 | > 30 | > 30 | > 30 | > 30 | > 30 | > 30 | > 30 | > 30 | > 30 | > 30 | > 30 | > 30 | > 30
5 | COC(=O)Nc1nc2cc(C(=O)c3ccc(F)cc3)ccc2[nH]1 [FLUBENDAZOLE] | > 30 | > 30 | 8.69 | > 30 | > 30 | > 30 | > 30 | > 30 | > 10 | > 30 | > 30 | 0.386 | > 30 | > 30 | 2.17 | > 30 | > 30 | > 30 | > 30 | > 30
6 | CC1=C(/C=C/C(C)=C/C=C/C(C)=C\C(=O)O)C(C)(C)CCC1 [ISOTRETINOIN] | > 30 | > 30 | > 30 | > 30 | > 30 | > 30 | > 30 | > 30 | > 30 | > 30 | > 30 | > 30 | > 30 | > 30 |  | > 30 | > 30 |  | > 30 | > 30
7 | Cc1ccc(Cl)c(Nc2ccccc2C(=O)O)c1Cl [MECLOFENAMIC ACID] | > 30 | 20 | 29.6 | > 30 | > 30 | > 30 | > 30 | > 30 | > 30 | > 30 | > 30 | > 30 | > 30 | > 30 | 0.0142 | 25.5 | > 30 | 0.0171 | > 30 | > 30
8 | Oc1ccc(OCc2ccccc2)cc1 [MONOBENZONE] | > 30 | > 30 | > 30 | > 30 | > 30 | > 30 | > 30 | > 30 | 6.96 | > 30 | > 30 | > 30 | > 30 | 8.56 | 11 | > 30 | > 30 | 7.88 | > 30 | > 30
9 | C#C[C@]1(OC(C)=O)CC[C@H]2[C@@H]3CCC4=CC(=O)CC[C@@H]4[C@H]3CC[C@@]21C [NORETHINDRONE ACETATE] | > 30 | 9.74 | 0.838 | > 30 | > 30 | > 30 | > 30 | 5.91 | 19.1 | > 30 | > 30 | > 30 | > 30 | > 30 | > 30 | > 30 | > 30 | > 30 | > 30 | > 30
10 | C[C@@H]1O[C@@H](O[C@H]2C[C@@H](O)[C@]3(CO)[C@H]4[C@H](O)C[C@]5(C)[C@@H](C6=CC(=O)OC6)CC[C@]5(O)[C@@H]4CC[C@]3(O)C2)[C@H](O)[C@H](O)[C@H]1O [OUABAIN] | > 30 | > 30 | > 30 | > 30 | > 30 | > 30 | > 30 | > 30 | > 30 | > 30 | > 30 | > 30 | > 30 | > 30 | > 30 | > 30 | > 30 | > 30 | > 30 | > 30
